From patent publication US9708314B2, “Heterocyclic amide compound” (NISSAN CHEMICAL INDUSTRIES, LTD., priority 2013, dated 2017)

Tests used:
Type in all cases: in vivo
[1] = test system: Lolium multiflorum Lam.; experiment: Test Example 4: herbicidal effect by application to foliage (diluvial soil, plastic box); settings: for K: herbicidal effect on Lolium multiflorum Lam.: application to foliage, application herbicide amount 320 g/ha
Description: (§1) 5 Herbicidal ratio of 90% or more (almost completely withered) 4 Herbicidal ratio of 70% or more and less than 90% 3 Herbicidal ratio of 40% or more and less than 70% 2 Herbicidal ratio of 20% or more and less than 40% 1 Herbicidal ratio of 5% or more and less than 20% 0 Herbicidal ratio of 5% or less (almost no effect) [Test Example 4] Herbicidal Effect Test by Application to Foliage Sterilized diluvial soil was placed in a plastic box having a length of 21 cm, a width of 13 cm, and a depth of 7 cm. Each of the seeds of Digitaria ciliaris, Setaria viridis, Echinochloa crus-galli var. crus-galli, Avena fatua, Alopecurus myosuroides, Lolium multiflorum Lam., Apera spica-venti., Abutilon theophrasti, Amaranthus retroflexus, Chenopodium album, Stellaria media, Galium spurium, Veronica persica, Zea mays, Glycine max, Oryza sativa, Triticum aestivum, Beta vulgaris ssp. vulgaris, and Brassica campestris L. was sowed in a spot-like manner and was covered with the soil of about 1.5 cm thick. Thereafter, the plants were grown in the greenhouse of 25° C. to 30° C. After the plants were grown for 14 days, the emulsion agent containing the compound of the present invention prepared in accordance with Formulation Example 2 was diluted with water so as to be a predetermined herbicide amount and the diluted compound was uniformly applied to a stem and leaf part with a small-size spray. Three weeks after the herbicide application, effects on each plant were investigated in accordance with the criteria of Test Example 1. A: Echinochloa oryzicola Vasing., B: Scirpus juncoides, C: Monochoria vaginalis, D: Leptochloa chinensis, E: Cyperus difformis, F: Digitaria ciliaris, G: Setaria viridis, H: Echinochloa crus-galli var. crus-galli, I: Avena fatua, J: Alopecurus myosuroides, K: Lolium multiflorum Lam., L: Apera spica-venti., M: Abutilon theophrasti, N: Amaranthus retroflexus, O: Chenopodium album, P: Stellaria media, Q: Galium spurium, R: Veronica persica, a: transplanted Oryza sativa, b: directly sowed Oryza sativa, c: Zea mays, d: Glycine max, e: Triticum aestivum, f: Beta vulgaris ssp. vulgaris, and g: Brassica campestris L. The application herbicide amount (g/ha) means an amount that a concentration is adjusted so that, when an application amount is converted into per hectare (1 ha), the herbicide is applied by the number of grams (g) of the described value.

[2] = test system: Echinochloa crus-galli var. crus-galli; experiment: as above; settings: for H: herbicidal effect on Echinochloa crus-galli var. crus-galli: application to foliage, application herbicide amount 320 g/ha
Description: as §1

[3] = test system: Abutilon theophrasti; experiment: as above; settings: for M: herbicidal effect on Abutilon theophrasti: application to foliage, application herbicide amount 320 g/ha
Description: as §1

[4] = test system: Avena fatua; experiment: as above; settings: for I: herbicidal effect on Avena fatua: application to foliage, application herbicide amount 320 g/ha
Description: as §1

[5] = test system: Veronica persica; experiment: as above; settings: for R: herbicidal effect on Veronica persica: application to foliage, application herbicide amount 320 g/ha
Description: as §1

[6] = test system: Apera spica-venti.; experiment: as above; settings: for L: herbicidal effect on Apera spica-venti.: application to foliage, application herbicide amount 320 g/ha
Description: as §1

[7] = test system: Digitaria ciliaris; experiment: as above; settings: for F: herbicidal effect on Digitaria ciliaris: application to foliage, application herbicide amount 320 g/ha
Description: as §1

[8] = test system: Alopecurus myosuroides; experiment: as above; settings: for J: herbicidal effect on Alopecurus myosuroides: application to foliage, application herbicide amount 320 g/ha
Description: as §1

[9] = test system: Chenopodium album; experiment: as above; settings: for O: herbicidal effect on Chenopodium album: application to foliage, application herbicide amount 320 g/ha
Description: as §1

[10] = test system: Galium spurium; experiment: as above; settings: for Q: herbicidal effect on Galium spurium: application to foliage, application herbicide amount 320 g/ha
Description: as §1

[11] = test system: Setaria viridis; experiment: as above; settings: for G: herbicidal effect on Setaria viridis: application to foliage, application herbicide amount 320 g/ha
Description: as §1

[12] = test system: directly sowed Oryza sativa; experiment: Test Example 3: effect on crop by application to foliage (Wagner pot, water depth 0.1-0.5 cm); settings: Nineteenth Table; application to foliage; application herbicide amount 224 g/ha
Description: (§2) 5 Herbicidal ratio of 90% or more (almost completely withered) 4 Herbicidal ratio of 70% or more and less than 90% 3 Herbicidal ratio of 40% or more and less than 70% 2 Herbicidal ratio of 20% or more and less than 40% 1 Herbicidal ratio of 5% or more and less than 20% 0 Herbicidal ratio of 5% or less (almost no effect) [Test Example 3] Herbicidal Effect Test by Application to Foliage After alluvial soil was placed into 1/10000 are of Wagner pot, water was poured and mixed to form a condition having a water depth of 0.1 cm to 0.5 cm. Seeds of Echinochloa crus-galli var. crus-galli, Leptochloa chinensis, Cyperus difformis, and Oryza sativa were sowed and the pot was placed in the greenhouse of 25° C. to 30° C. to grow the plants. After the plants were grown for 14 days, the emulsion agent containing the compound of the present invention prepared in accordance with Formulation Example 2 was diluted with water so as to be a predetermined herbicide amount and the diluted compound was uniformly applied to a stem and leaf part with a small-size spray. Three weeks after the herbicide application, effects on each plant were investigated in accordance with the criteria of Test Example 1. A: Echinochloa oryzicola Vasing., B: Scirpus juncoides, C: Monochoria vaginalis, D: Leptochloa chinensis, E: Cyperus difformis, F: Digitaria ciliaris, G: Setaria viridis, H: Echinochloa crus-galli var. crus-galli, I: Avena fatua, J: Alopecurus myosuroides, K: Lolium multiflorum Lam., L: Apera spica-venti., M: Abutilon theophrasti, N: Amaranthus retroflexus, O: Chenopodium album, P: Stellaria media, Q: Galium spurium, R: Veronica persica, a: transplanted Oryza sativa, b: directly sowed Oryza sativa, c: Zea mays, d: Glycine max, e: Triticum aestivum, f: Beta vulgaris ssp. vulgaris, and g: Brassica campestris L. The application herbicide amount (g/ha) means an amount that a concentration is adjusted so that, when an application amount is converted into per hectare (1 ha), the herbicide is applied by the number of grams (g) of the described value.

[13] = test system: Echinochloa crus-galli var. crus-galli; experiment: Test Example 3: herbicidal effect by application to foliage (Wagner pot, water depth 0.1-0.5 cm); settings: Nineteenth Table; application to foliage; application herbicide amount 224 g/ha
Description: as §2

[14] = test system: Leptochloa chinensis; experiment: as above; settings: Nineteenth Table; application to foliage; application herbicide amount 224 g/ha
Description: as §2

[15] = test system: Cyperus difformis; experiment: as above; settings: Nineteenth Table; application to foliage; application herbicide amount 224 g/ha
Description: as §2

[16] = test system: Beta vulgaris ssp. vulgaris; experiment: Test Example 4: effect on crop by application to foliage (diluvial soil, plastic box); settings: for f: effect on crop, Beta vulgaris ssp. vulgaris: application to foliage, application herbicide amount 320 g/ha
Description: as §1

[17] = test system: Triticum aestivum; experiment: as above; settings: for e: effect on crop, Triticum aestivum: application to foliage, application herbicide amount 320 g/ha
Description: as §1

[18] = test system: directly sowed Oryza sativa; experiment: as above; settings: for b: effect on crop, directly sowed Oryza sativa: application to foliage, application herbicide amount 320 g/ha
Description: as §1

[19] = test system: Zea mays; experiment: as above; settings: for c: effect on crop, Zea mays: application to foliage, application herbicide amount 320 g/ha
Description: as §1

[20] = test system: Glycine max; experiment: as above; settings: for d: effect on crop, Glycine max: application to foliage, application herbicide amount 320 g/ha
Description: as §1

[21] = test system: Brassica campestris L.; experiment: as above; settings: for g: effect on crop, Brassica campestris L.: application to foliage, application herbicide amount 320 g/ha
Description: as §1

[22] = test system: Amaranthus retroflexus; experiment: Test Example 4: herbicidal effect by application to foliage (diluvial soil, plastic box); settings: application to foliage, application herbicide amount 320 g/ha
Description: as §1

[23] = test system: Stellaria media; experiment: as above; settings: application to foliage, application herbicide amount 320 g/ha
Description: as §1

[24] = Application herbicide amount 224 g/ha
[25] = Application herbicide amount 224 g/ha, effect on crop

Structure (SMILES): Cc1nnc(NC(=O)c2c(C)cc(C(F)(F)F)n3c(C(C)C)nnc23)o1 [1-089]
- K [1, 24]: 0 (Herbicidal ratio of 5% or less (almost no effect))
- H [2, 24]: 3 (Herbicidal ratio of 40% or more and less than 70%)
- M [3, 24]: 2 (Herbicidal ratio of 20% or more and less than 40%)
- I [4, 24]: 2 (Herbicidal ratio of 20% or more and less than 40%)
- R [5, 24]: 3 (Herbicidal ratio of 40% or more and less than 70%)
- L [6, 24]: 0 (Herbicidal ratio of 5% or less (almost no effect))
- F [7, 24]: 1 (Herbicidal ratio of 5% or more and less than 20%)
- J [8, 24]: 0 (Herbicidal ratio of 5% or less (almost no effect))
- O [9, 24]: 4 (Herbicidal ratio of 70% or more and less than 90%)
- Q [10, 24]: 0 (Herbicidal ratio of 5% or less (almost no effect))
- G [11, 24]: 0 (Herbicidal ratio of 5% or less (almost no effect))
- b (effect on crop grade) [12]: 0 (Herbicidal ratio of 5% or less (almost no effect))
- H (herbicidal effect grade) [13]: 3 (Herbicidal ratio of 40% or more and less than 70%)
- D (herbicidal effect grade) [14]: 3 (Herbicidal ratio of 40% or more and less than 70%)
- E (herbicidal effect grade) [15]: 2 (Herbicidal ratio of 20% or more and less than 40%)
- f [16, 25]: 3 (Herbicidal ratio of 40% or more and less than 70%)
- e [17, 25]: 0 (Herbicidal ratio of 5% or less (almost no effect))
- d [18, 25]: 1 (Herbicidal ratio of 5% or more and less than 20%)
- b [19, 25]: 0 (Herbicidal ratio of 5% or less (almost no effect))
- c [20, 25]: 0 (Herbicidal ratio of 5% or less (almost no effect))
- g [21, 25]: 1 (Herbicidal ratio of 5% or more and less than 20%)

Structure (SMILES): CC#Cc1nnc2c(C(=O)Nc3nnco3)ccc(C(F)(F)F)n12 [1-160]
- K: herbicidal effect on Lolium multiflorum Lam. [1]: 0 (Herbicidal ratio of 5% or less (almost no effect))
- H: herbicidal effect on Echinochloa crus-galli var. crus-galli [2]: 2 (Herbicidal ratio of 20% or more and less than 40%)
- M: herbicidal effect on Abutilon theophrasti [3]: 3 (Herbicidal ratio of 40% or more and less than 70%)
- I: herbicidal effect on Avena fatua [4]: 0 (Herbicidal ratio of 5% or less (almost no effect))
- R: herbicidal effect on Veronica persica [5]: 1 (Herbicidal ratio of 5% or more and less than 20%)
- N: herbicidal effect on Amaranthus retroflexus [22]: 1 (Herbicidal ratio of 5% or more and less than 20%)
- L: herbicidal effect on Apera spica-venti. [6]: 0 (Herbicidal ratio of 5% or less (almost no effect))
- F: herbicidal effect on Digitaria ciliaris [7]: 1 (Herbicidal ratio of 5% or more and less than 20%)
- J: herbicidal effect on Alopecurus myosuroides [8]: 0 (Herbicidal ratio of 5% or less (almost no effect))
- O: herbicidal effect on Chenopodium album [9]: 4 (Herbicidal ratio of 70% or more and less than 90%)
- Q: herbicidal effect on Galium spurium [10]: 0 (Herbicidal ratio of 5% or less (almost no effect))
- P: herbicidal effect on Stellaria media [23]: 3 (Herbicidal ratio of 40% or more and less than 70%)
- G: herbicidal effect on Setaria viridis [11]: 0 (Herbicidal ratio of 5% or less (almost no effect))
- f: effect on crop, Beta vulgaris ssp. vulgaris [16]: 2 (Herbicidal ratio of 20% or more and less than 40%)
- e: effect on crop, Triticum aestivum [17]: 0 (Herbicidal ratio of 5% or less (almost no effect))
- b: effect on crop, directly sowed Oryza sativa [18]: 0 (Herbicidal ratio of 5% or less (almost no effect))
- c: effect on crop, Zea mays [19]: 0 (Herbicidal ratio of 5% or less (almost no effect))
- d: effect on crop, Glycine max [20]: 2 (Herbicidal ratio of 20% or more and less than 40%)
- g: effect on crop, Brassica campestris L. [21]: 0 (Herbicidal ratio of 5% or less (almost no effect))

Structure (SMILES): CC(C)c1nnc2c(C(=O)Nc3nnnn3C)cc(C(F)(F)F)cn12 [2-018]
- K: herbicidal effect on Lolium multiflorum Lam. [1]: 0 (Herbicidal ratio of 5% or less (almost no effect))
- H: herbicidal effect on Echinochloa crus-galli var. crus-galli [2]: 1 (Herbicidal ratio of 5% or more and less than 20%)
- M: herbicidal effect on Abutilon theophrasti [3]: 3 (Herbicidal ratio of 40% or more and less than 70%)
- I: herbicidal effect on Avena fatua [4]: 0 (Herbicidal ratio of 5% or less (almost no effect))
- R: herbicidal effect on Veronica persica [5]: 2 (Herbicidal ratio of 20% or more and less than 40%)
- N: herbicidal effect on Amaranthus retroflexus [22]: 3 (Herbicidal ratio of 40% or more and less than 70%)
- L: herbicidal effect on Apera spica-venti. [6]: 0 (Herbicidal ratio of 5% or less (almost no effect))
- F: herbicidal effect on Digitaria ciliaris [7]: 2 (Herbicidal ratio of 20% or more and less than 40%)
- J: herbicidal effect on Alopecurus myosuroides [8]: 0 (Herbicidal ratio of 5% or less (almost no effect))
- O: herbicidal effect on Chenopodium album [9]: 3 (Herbicidal ratio of 40% or more and less than 70%)
- Q: herbicidal effect on Galium spurium [10]: 1 (Herbicidal ratio of 5% or more and less than 20%)
- P: herbicidal effect on Stellaria media [23]: 0 (Herbicidal ratio of 5% or less (almost no effect))
- G: herbicidal effect on Setaria viridis [11]: 1 (Herbicidal ratio of 5% or more and less than 20%)
- f: effect on crop, Beta vulgaris ssp. vulgaris [16]: 1 (Herbicidal ratio of 5% or more and less than 20%)
- e: effect on crop, Triticum aestivum [17]: 0 (Herbicidal ratio of 5% or less (almost no effect))
- b: effect on crop, directly sowed Oryza sativa [18]: 0 (Herbicidal ratio of 5% or less (almost no effect))
- c: effect on crop, Zea mays [19]: 0 (Herbicidal ratio of 5% or less (almost no effect))
- d: effect on crop, Glycine max [20]: 0 (Herbicidal ratio of 5% or less (almost no effect))
- g: effect on crop, Brassica campestris L. [21]: 0 (Herbicidal ratio of 5% or less (almost no effect))
